Results: ChEMBL document CHEMBL1153383, “Novel 2- and 4-substituted 1H-imidazo[4,5-c]quinolin-4-amine derivatives as allosteric modulators of the A3 adenosine receptor” (J Med Chem, 2009)

How the values were obtained:
[1] = biological target: T1, Adenosine receptor A1 (Homo sapiens) (UniProt P30542); test: Displacement of [3H]CCPA from human recombinant adenosine A1 receptor expressed in CHO cells at 10 uM; type: cell-based
T1 sequence (whole entry): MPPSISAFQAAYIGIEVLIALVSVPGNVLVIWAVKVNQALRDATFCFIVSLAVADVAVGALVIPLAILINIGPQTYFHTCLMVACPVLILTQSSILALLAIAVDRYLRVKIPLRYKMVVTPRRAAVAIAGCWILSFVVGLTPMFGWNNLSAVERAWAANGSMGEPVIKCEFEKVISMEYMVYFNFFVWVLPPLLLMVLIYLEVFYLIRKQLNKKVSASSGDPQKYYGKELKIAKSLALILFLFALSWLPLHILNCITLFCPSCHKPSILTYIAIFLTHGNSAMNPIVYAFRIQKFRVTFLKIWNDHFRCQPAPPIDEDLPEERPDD

[2] = biological target: Adenosine receptor A2a (Homo sapiens) (UniProt P29274); test: Displacement of [3H]CGS21680 from human recombinant adenosine A2A receptor expressed in HEK293 cells at 10 uM; type: cell-based
[3] = biological target: T2, Adenosine receptor A3 (Homo sapiens) (UniProt P0DMS8); test: Decrease in dissociation of [125I]I-AB-MECA from human recombinant adenosine A3 receptor expressed in CHO cells at 10 uM after 60 mins relative to control; type: cell-based; parameters: scale not given: the % may be the effect or the level left
T2 sequence (whole entry): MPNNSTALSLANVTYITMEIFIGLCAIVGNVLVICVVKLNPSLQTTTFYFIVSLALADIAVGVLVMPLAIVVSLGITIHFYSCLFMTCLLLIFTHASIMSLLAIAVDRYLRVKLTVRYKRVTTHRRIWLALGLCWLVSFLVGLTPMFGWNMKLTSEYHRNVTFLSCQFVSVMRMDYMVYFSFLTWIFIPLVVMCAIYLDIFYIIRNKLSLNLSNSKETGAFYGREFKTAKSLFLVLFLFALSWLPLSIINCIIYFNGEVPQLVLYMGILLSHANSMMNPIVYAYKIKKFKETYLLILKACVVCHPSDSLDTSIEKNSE

[4] = biological target: T2, Adenosine receptor A3 (Homo sapiens); test: Displacement of [125I]I-AB-MECA from human recombinant adenosine A3 receptor expressed in CHO cells at 10 uM; type: cell-based
[5] = biological target: T2, Adenosine receptor A3 (Homo sapiens); test: Increase in efficacy of stimulation of [35S]GTPgammaS binding to human adenosine A3 receptor expressed in CHO cells at 10 uM by liquid scintillation counting relative to C1-IB-MECA; type: functional, cell-based

Sequence of Adenosine receptor A2a (Homo sapiens) (P29274 whole entry): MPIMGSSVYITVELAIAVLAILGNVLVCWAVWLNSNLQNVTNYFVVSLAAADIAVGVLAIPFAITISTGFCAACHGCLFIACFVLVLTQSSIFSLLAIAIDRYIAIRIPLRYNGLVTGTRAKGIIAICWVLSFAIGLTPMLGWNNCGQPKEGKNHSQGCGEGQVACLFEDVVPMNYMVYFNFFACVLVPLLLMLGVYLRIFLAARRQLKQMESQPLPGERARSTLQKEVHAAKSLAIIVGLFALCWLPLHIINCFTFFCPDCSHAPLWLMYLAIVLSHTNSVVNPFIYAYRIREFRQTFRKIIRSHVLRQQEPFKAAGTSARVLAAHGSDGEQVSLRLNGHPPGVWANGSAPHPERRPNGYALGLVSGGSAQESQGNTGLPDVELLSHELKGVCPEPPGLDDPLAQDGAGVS

SMILES | Activity [1] | Activity [2] | Activity [3] | Activity [4] | Activity [5]
Clc1ccc(Nc2nc3ccccc3c3[nH]c(C4CCCCCC4)nc23)cc1Cl | -4.2% | -2.2% | – | – | –
N[C@H]1CC[C@@H](c2nc3c(Nc4ccc(Cl)c(Cl)c4)nc4ccccc4c3[nH]2)CC1 | 31.7% | 15.8% | 107% | 4.2% | –
Clc1ccc(Nc2nc3ccccc3c3[nH]c(C4CCN(Cc5ccccc5)CC4)nc23)cc1Cl | 17.8% | -3.1% | 93% | 46.3% | –
FC(F)(F)c1cc(Nc2nc3ccccc3c3nc(C4CCCCC4)[nH]c23)cc(C(F)(F)F)c1 | 7.2% | 15.6% | 137% | 21.8% | 143%
COc1ccc(Nc2nc3ccccc3c3[nH]c(C4CCCCC4)nc23)cc1OC | 75.6% | 93.8% | 173% | 98.4% | 182%
Clc1ccc(Nc2nc3ccccc3c3nc(C4CCCCC4)[nH]c23)cc1Cl | 37% | -11.2% | – | – | –
Clc1cc(Cl)cc(Nc2nc3ccccc3c3[nH]c(C4CCCCC4)nc23)c1 | 16.7% | -11.4% | 184% | 32.7% | 209%
Clc1ccc(Nc2nc3ccccc3c3[nH]c(C45CC6CC(CC(C6)C4)C5)nc23)cc1Cl | 13.8% | -4.4% | 196% | 17.2% | –
c1ccc2c(c1)nc(Nc1ccc3c(c1)OCO3)c1nc(C3CCCCC3)[nH]c12 | 65.4% | 49% | 185% | 83.9% | 166%
O=C(c1ccccc1)N1CCC(c2nc3c(Nc4ccc(Cl)c(Cl)c4)nc4ccccc4c3[nH]2)CC1 | 20.2% | 8.8% | 91% | 29.8% | –
Clc1ccc(Nc2nc3ccccc3c3[nH]c(C4CCCC4)nc23)cc1Cl | – | 0% | – | – | –
Clc1ccc(Nc2nc3ccccc3c3[nH]c([C@H]4C[C@H]5CC[C@H]4C5)nc23)cc1Cl | 44.8% | 39.4% | 168% | 50.5% | –
c1cncc(Nc2nc3ccccc3c3[nH]c(C4CCCCC4)nc23)c1 | 73.1% | 78.1% | 114% | 64.8% | 119%
O=C1c2ccccc2C(=O)N1[C@H]1CC[C@@H](c2nc3c(Nc4ccc(Cl)c(Cl)c4)nc4ccccc4c3[nH]2)CC1 | 21.4% | 56.8% | 102% | 5.6% | –
O=C(c1ccccc1)N1CCC(c2nc3c(Nc4ccccc4)nc4ccccc4c3[nH]2)CC1 | 12.4% | 43.4% | 92% | 35.3% | –
Clc1ccc(Nc2nc3ccccc3c3[nH]c([C@H]4C[C@H]5CC[C@@H]4C5)nc23)cc1Cl | 77.9% | 5.8% | 187% | 61.2% | –
Clc1ccc(Nc2nc3ccccc3c3[nH]c(C45CC6CC(CC4C6)C5)nc23)cc1Cl | 14.5% | -17.3% | 139% | 3.3% | –
Clc1cccc(Nc2nc3ccccc3c3[nH]c(C4CCCCC4)nc23)c1 | 53.3% | 42.8% | 194% | 79.2% | 200%
N#Cc1ccc(Nc2nc3ccccc3c3nc(C4CCCCC4)[nH]c23)cc1C#N | 33.1% | 37.2% | 129% | 42.2% | 138%
Clc1ccc(Nc2nc3ccccc3c3[nH]c(C4CCCCC4)nc23)c(Cl)c1 | 48% | 67.2% | 174% | 43.9% | 187%
Fc1cc(F)cc(Nc2nc3ccccc3c3[nH]c(C4CCCCC4)nc23)c1 | 36.6% | 17.2% | 188% | 70.1% | 171%
Clc1ccc(Nc2nc3ccccc3c3[nH]c(C4CCOCC4)nc23)cc1Cl | 37.2% | -11.9% | 115% | 69.6% | –
Clc1ccc(Nc2nc3ccccc3c3[nH]c(C4CCC4)nc23)cc1Cl | -5.2% | – | – | – | –
Fc1ccc(Nc2nc3ccccc3c3[nH]c(C4CCCCC4)nc23)cc1F | 14.6% | 26.5% | 187% | 68.8% | 197%
Clc1ccc(Nc2nc3ccccc3c3[nH]c(C4CCNCC4)nc23)cc1Cl | 10.9% | 7% | 101% | 52.8% | –
